Reference: publication PMC7998250, “Temperate Zone Plant Natural Products—A Novel Resource for Activity against Tropical Parasitic Diseases” (Pharmaceuticals, 2021)
Where two headings read alike, the source gives them in different places.

Tests used:
[1] = test system: T. evansi; experiment: Concentration-response EC50, T. evansi; format: cell-based; conditions: Trypanosoma evansi, 48 h, read-out: T. evansi EC50
Experimental: (§5) EC50 values were determined by serial two-fold dilution of each compound in 96 well plates. Culture conditions and viability assays were as stated for the initial screen, with some exceptions. L. mexicana and L. donovani axenic amastigotes were seeded at 2 × 10^6 cell/s mL, T. brucei and T. evansi were seeded at 2 × 10^5 cells/mL. For cytotoxicity studies, HepG2 cells were seeded at 1 × 10^5 cells/mL, incubated for 48 h and viability was assessed using the Alamar Blue assay [66, 67]. […] Normalised growth and viability data (compared to untreated controls) were plotted against Log10 concentration to estimate EC50 in GraphPad (Prism v6).

[2] = test system: P. falciparum 3D7; experiment: Concentration-response EC50, P. falciparum 3D7; format: cell-based; conditions: Plasmodium falciparum
Excerpt: This is not surprising as the rate of kill is a result of the mechanism of cell death and, given their structural similarity, these three bisobolane sesquiterpene glycosides likely share the same target(s), albeit with some differences in affinity. The rate of kill, relatively, falls between that of atovaquone and dihydroartemisinin and is more similar to that of chloroquine.

[3] = test system: T. brucei bloodstream form; experiment: Initial screen, T. brucei bloodstream form, Alamar Blue; format: cell-based, Trypanosoma brucei brucei; conditions: for initial hit against T. brucei: growth reduced by ≥50%; for activity at 2 µM / inhibition of growth at 2 µM: Trypanosoma brucei; for inhibition of growth at 2 µM: read-out: initial hit T.b
Summary of the method: (§1)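 Bloodstream-form T. evansi Antat 3/3 and T. brucei Lister 427 were grown in HMI-11 with 10% FBS at 37 °C. Parasites were plated at 1×10^5 cells/mL with compound at 1 μM (T. evansi) or 2 μM (T. brucei) for 48 h, and growth was read by Alamar Blue relative to 1% DMSO controls (n = 6).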

[4] = test system: P. falciparum Dd2Luc intraerythrocytic trophozoites; experiment: Initial screen, intraerythrocytic P. falciparum, Malaria SYBR-Green I fluorescence assay; format: cell-based, Plasmodium falciparum; conditions: for initial hit against P. falciparum: 2 μM, growth reduced by ≥50%; for activity at 2 µM / inhibition of growth at 2 µM: Plasmodium falciparum, 48 h; for inhibition of growth at 2 µM: read-out: initial hit P.f
Summary of the method: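 L. mexicana axenic amastigotes at 1 × 10^6 cells/mL exposed 72 h to compounds at 2 μM, growth read by Alamar Blue; P. falciparum trophozoites at 0.5% parasitaemia, 2% haematocrit, 48 h at 2 μM, SYBR-Green I read-out. Growth normalised to 1% DMSO; hits ≥50% growth reduction.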

[5] = test system: L. mexicana axenic amastigotes; experiment: Initial screen, L. mexicana axenic amastigotes, Alamar Blue; format: cell-based, Leishmania mexicana
Summary of the method: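 Purified temperate plant natural products from a commercial library (1 mg/mL in DMSO) were tested against Leishmania mexicana axenic amastigotes at a final 2 μM. Parasites were seeded at 1 × 10^6 cells/mL in 96-well plates containing 200 μL culture and incubated 72 h. Growth was measured by Alamar Blue and normalised to DMSO controls (1% v/v), with triplicates over two biological replicates (n = 6).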

[6] = test system: T. evansi bloodstream form; experiment: Initial screen, T. evansi bloodstream form, Alamar Blue; format: cell-based, Trypanosoma evansi; conditions: Trypanosoma evansi; for activity at 1 µM: initial screen
Summary of the method: as §1

[7] = test system: T. brucei; experiment: Concentration-response EC50, T. brucei; format: cell-based, Trypanosoma brucei brucei; conditions: for EC50: Trypanosoma brucei, 48 h; for selectivity index (HepG2 CC50 / T. brucei EC50): preliminary selectivity against HepG2
Experimental: as §5

[8] = test system: P. falciparum Dd2Luc; experiment: Concentration-response EC50, P. falciparum Dd2Luc; format: cell-based, Plasmodium falciparum; conditions: Plasmodium falciparum, 48 h, read-out: P. falciparum Dd2Luc EC50, intraerythrocytic, 48 h
Experimental: as §5

[9] = test system: HepG2 cells; experiment: in vitro; conditions: human, 48 h, pH 7
Excerpt: (§2) Initial hits from the parasite panel screen were taken forward in log concentration versus normalised response assays to estimate the half maximal effective concentration (EC50) in hit species as well as the half maximal cytotoxic concentrations (CC50) in the human hepatoma cell line HepG2 as a preliminary test for selectivity. Using CC50/EC50 to define the selectivity index (SI), the selectivity for each compound in a defined species compared to a human cell line was estimated and compared to the EC50 (Figure 3).
(§3) L. mexicana strain MNYC/BZ/62/M379 and L. donovani strain LdBOB (a clonal line from strain MHOM/SD/62/1S-CL2) were maintained in vitro in the procyclic promastigote stage. Parasites were cultivated at 26 °C in Schneider’s medium (Gibco) pH 7.0 containing 10% FBS, 100 U/mL penicillin (Lonza) and 100 μg/mL streptomycin (Lonza) as previously described. Differentiation into axenic amastigotes was performed as described previously. Briefly, axenic amastigotes were cultivated at 32 °C in Schneider’s medium pH 5.5 containing 10% FBS, 100 U/mL penicillin (Lonza) and 100 μg/mL streptomycin (Lonza). Bloodstream form T. brucei brucei strain Lister 427 and T. evansi strain Antat 3/3 [59] were maintained in vitro at 37 °C with 5% (v/v) CO2 in HMI-11 medium supplemented with 10% FBS, as described elsewhere. Intraerythrocytic cultures of P. falciparum Dd2^Luc strain [62] were maintained at 37 °C in a 1% O2:3% CO2:96% N2 atmosphere in RPMI-1640 containing 37.5 mM HEPES, 5 mM NaOH, 10 mM D-glucose, 2 mM L-glutamine, 100 μM hypoxanthine, […] gentamicin sulfate, 5% human serum and 5% albumax-II and 2% haematocrit erythrocytes. When required, cultures were synchronised to ring stages using the sorbitol lysis method. Preliminary cytotoxicity screening was assessed using HepG2 cells. These cells were maintained in vitro at 37 °C with 5% (v/v) CO2 in DMEM (Sigma) pH 7 supplemented with 10% FBS, 100 U/mL penicillin (Lonza) and 100 μg/mL streptomycin (Lonza), as previously described. The human monocyte cell line THP-1 [68] was maintained in vitro by culturing at 37 °C with 5% (v/v) CO2 in complete RPMI medium (Dutch modified RPMI-1640 (Gibco) containing 10% FBS and 2 mM L-glutamine (Gibco)). Differentiation of THP-1 cells into macrophages was performed by seeding 2.5 × 10^5 cells/mL in complete RPMI media, supplemented with 20 ng/mL phorbol 12-myristate 13-acetate (PMA), followed by incubation at 37 °C with 5% (v/v) CO2 for 24 h.
(§4) EC50 values were determined by serial two-fold dilution of each compound in 96 well plates. Culture conditions and viability assays were as stated for the initial screen, with some exceptions. L. mexicana and L. donovani axenic amastigotes were seeded at 2 × 10^6 cell/s mL, T. brucei and T. evansi were seeded at 2 × 10^5 cells/mL. For cytotoxicity studies, HepG2 cells were seeded at 1 × 10^5 cells/mL, incubated for 48 h and viability was assessed using the Alamar Blue assay. Differentiated THP-1 cells were seeded at 5 × 10^4 cells/mL, incubated for 48 h, and viability was assessed by the Alamar Blue assay. Normalised growth and viability data (compared to untreated controls) were plotted against Log10 concentration to estimate EC50 in GraphPad (Prism v6). Bioluminescence relative rate of kill assays in asexual intraerythrocytic P. falciparum Dd2^Luc were carried out as described.

[10] = in vitro; conditions: human, pH 7, HepG2 CC50
Excerpt: as §2, §3, §4

[11] = test system: L. mexicana axenic amastigotes; experiment: Concentration-response EC50, L. mexicana axenic amastigotes (WT); format: cell-based, Leishmania mexicana; conditions: Leishmania mexicana, 72 h, read-out: L. mexicana EC50, axenic amastigotes, 72 h
[12] = Cytotoxicity CC50, differentiated THP-1, Alamar Blue; format: cell-based, human; conditions: human, THP-1 cells differentiated into macrophages with PMA, differentiated THP-1, 48 h; read-out: THP1 CC50
Excerpt: The four lanosterone-like sterols derived from the Noble Fir Abies procera (700022, 700107, 700136) and the Grand Fir Abies grandis (700240) were the only initial compounds taken forward for L. mexicana due to their nanomolar activity and apparent low cytotoxicity (Figure 3a). […] Understanding the impact of the ring-opened lactone head group in this compound compared to the other three warrants further analysis in exploring their structure-activity relationships. These four sterols were also tested for growth inhibitory activity against L. donovani axenic amastigotes. […] As Leishmania spp. amastigotes typically reside with macrophages, further cytotoxicity assays with these sterols were performed against an activated monocyte cell line (THP-1) (Figure 4b). […]

[13] = 3D7, read-out: P. falciparum 3D7 EC50
[14] = read-out: % growth T. b. brucei, mean % growth compared to a normalised control with same concentration of DMSO solvent, initial screen
[15] = read-out: %growth P. falciparum, mean % growth compared to a normalised control with same concentration of DMSO solvent, initial screen
[16] = Leishmania mexicana, read-out: % growth L. mexicana, mean % growth compared to a normalised control with same concentration of DMSO solvent, initial screen
[17] = read-out: T. brucei EC50, bloodstream form, 48 h
[18] = mean % growth compared to a normalised control with same concentration of DMSO solvent, initial screen
[19] = 3D7, intraerythrocytic, read-out: P. falciparum 3D7 EC50
[20] = initial screen, compared to a normalised control with same concentration of DMSO solvent, read-out: mean % growth, T. b. brucei
[21] = read-out: mean % growth, P. falciparum, initial screen, compared to a normalised control with same concentration of DMSO solvent
[22] = Leishmania mexicana, read-out: mean % growth, L. mexicana, initial screen, compared to a normalised control with same concentration of DMSO solvent
[23] = bloodstream form, read-out: T. brucei EC50

Structure (SMILES): CC(=O)OC1C(O)C(C)OC(OC2C(OC(=O)C3CC[C@@H]4[C@H](C3)OC3(CC(OC(=O)/C=C/c5ccccc5)[C@@H](C)CO3)C43CO3)OC(CO)C(O)C2O)C1O (stereo partly drawn) [Compound 700046]
- EC50 [1]: 118 nM
- EC50 [2, 13]: 34 nM
- initial hit against T. brucei ([3]; 2 μM): initial hits
- activity at 2 µM [3, 14]: 5.6%
- inhibition of growth at 2 µM [3]: > 50%
- initial hit against P. falciparum [4]: initial hits
- activity at 2 µM [4, 15]: 9.8%
- inhibition of growth at 2 µM [4]: > 50%
- activity at 2 µM [5, 16]: 83.4%
- activity at 1 µM ([6]; read-out: % growth T. evansi, mean % growth compared to a normalised control with same concentration of DMSO solvent): 2.9%
- inhibition of growth at 1 µM ([6]; read-out: initial hit T.e): > 50%
- EC50 [7, 17]: 180 nM
- selectivity index (HepG2 CC50 / T. brucei EC50) [7]: > 10
- EC50 [8]: 56 nM

Structure (SMILES): CC(=O)OC1C(O)C(C)OC(OC2C(OC(=O)C3CC[C@@H]4[C@H](C3)OC3(CC(OC(=O)/C=C/c5ccccc5)[C@@H](C)CO3)C43CO3)OC(CO)C(O)C2OC(C)=O)C1O (stereo partly drawn) [Compound 700048]
- EC50 [2, 13]: 360 nM
- initial hit against T. brucei ([3]; 2 μM): initial hits
- inhibition of growth at 2 µM [3]: > 50%
- % growth T. b. brucei [3, 18]: 5.8%
- initial hit against P. falciparum [4]: initial hits
- inhibition of growth at 2 µM [4]: > 50%
- %growth P. falciparum [4, 18]: 20.3%
- activity at 2 µM [5, 16]: 89%
- EC50 [7, 17]: 160 nM
- selectivity index (HepG2 CC50 / T. brucei EC50) [7]: > 10
- EC50 [8]: 150 nM

Structure (SMILES): COc1cc(/C=C/C(=O)OC2CC3(C[C@H]4C=C(C(=O)OC5OC(CO)C(O)C(OC(C)=O)C5OC5OC(C)C(O)C(OC(C)=O)C5O)CC[C@H]4C34CO4)OC[C@@H]2C)ccc1O (stereo partly drawn) [Compound 700104]
- EC50 [2, 13]: 350 nM
- activity at 2 µM [3, 14]: 69.7%
- initial hit against P. falciparum [4]: initial hits
- activity at 2 µM [4, 15]: 31.6%
- inhibition of growth at 2 µM [4]: > 50%
- activity at 2 µM [5, 16]: 146%
- EC50 [8]: 750 nM

Structure (SMILES): C=C1C(OC(=O)/C=C/c2ccccc2)C(CC(C)=O)C(O)C2(C)CCC3=C(C)C(OC(C)=O)CC(CC12)C3(C)C (stereo not drawn) [Compound 700535]
- EC50 [2, 19]: 3300 nM
- activity at 2 µM [3, 20]: 99.4%
- initial hit against P. falciparum [4]: initial hits
- inhibition of growth at 2 µM [4]: > 50%
- activity at 2 µM [4, 21]: 31%
- activity at 2 µM [5, 22]: 68.2%
- activity at 1 µM ([6]; compared to a normalised control with same concentration of DMSO solvent, read-out: mean % growth, T. evansi): 78.7%
- EC50 [8]: 2300 nM

Structure (SMILES): CC1(C)OC2CC(=O)C=CC2(c2cc(=O)c3c(O)cc(O)cc3o2)O1 (stereo not drawn) [Compound 700585]
- initial hit against T. brucei ([3]; 2 μM): initial hits
- activity at 2 µM [3, 20]: 40.8%
- inhibition of growth at 2 µM ([3]; 2 μM, x = initial hit): > 50%
- activity at 2 µM [4, 21]: 95.2%
- CC50 [9]: 5300 nM
- CC50 at 48 h [10]: < 10000 nM
- activity at 2 µM [5, 22]: 78%
- EC50 [7, 23]: 430 nM
- selectivity index (HepG2 CC50 / T. brucei EC50) [7]: > 10

Structure (SMILES): CC(=O)OC1C(COC(=O)/C=C/c2ccc(O)cc2)OC(Oc2c(-c3ccc(O)cc3)oc3cc(O)cc(O)c3c2=O)C(OC(=O)/C=C/c2ccc(O)cc2)C1OC(C)=O (stereo not drawn) [Compound 701082]
- EC50 [2, 19]: 1600 nM
- initial hit against T. brucei ([3]; 2 μM): initial hits
- activity at 2 µM [3, 20]: 5%
- inhibition of growth at 2 µM ([3]; 2 μM, x = initial hit): > 50%
- activity at 2 µM [4, 21]: 77%
- CC50 at 48 h [10]: 4600 nM
- activity at 2 µM [5, 22]: 67.8%
- EC50 [7, 23]: 1100 nM
- EC50 [8]: 1200 nM

Structure (SMILES): CC#CC#CCc1cccc(O)c1 [Compound 701241]
- EC50 [11]: 330 nM
- CC50 at 48 h [12]: 270 nM
- initial hit against T. brucei ([3]; 2 μM): initial hits
- activity at 2 µM [3, 20]: -1.9%
- inhibition of growth at 2 µM ([3]; 2 μM, x = initial hit): > 50%
- activity at 2 µM [4, 21]: 96.5%
- CC50 at 48 h [10]: 670 nM
- initial hit against L. mexicana ([5]; 2 μM, growth inhibited by ≥80%): initial hits
- activity at 2 µM [5, 22]: 15%
- inhibition of growth at 2 µM ([5]; Leishmania mexicana, 2 μM, x = initial hit, read-out: initial hit L.m): > 80%
- EC50 [7, 23]: 2200 nM
